The record followed here is patent US9700543B2, “GLP-1 receptor stabilizers and modulators” (Celgene International II SÀRL, priority 2011, dated 2017).

The target in data set [1] is T1, GLP-1R (Homo sapiens, UniProt P43220).
T1 construct: host or cells: CRE-bla CHO-K1
The data set can be described thus: EC20 GLP-1(9-36) PAM cAMP assay: dose response of compound in the presence of fixed concentration of GLP-1(9-36). Format: cell-based. The following applies: compound dose response with fixed GLP-1(9-36), GLP-1R CRE-bla CHO-K1 cells; for EC20 GLP-1 (9-36) PAM Activity max cAMP: Emax as total cAMP; for EC50: cAMP. Here is the method:
EC20GLP-1(9-36) PAM cAMP Assay: Dose Response of Compound in the Presence of Fixed Concentration of GLP-1 (9-36)
GLP-1R CRE-bla CHO-K1 cells were seeded into 384-well white flat bottom plates at 10,000 cells/well/20 μL growth medium (DMEM-High glucose, 10% dialyzed FBS, 0.1 mM NEAA, 25 mM Hepes, 100 U/mL penicillin/100 μg/mL streptomycin, 5 μg/mL Blasticidin, 600 μg/mL Hygromycin) and incubated for 18 h at 37° C. in 5% CO2. Growth medium was replaced with 12 μL assay buffer (Hanks Balanced Salt solution, 10 mM Hepes, 0.1% BSA, pH7.4). A 5× compound dose response curve (12-point) was generated in assay buffer containing 1.5 mM IBMX, 12.5% DMSO. GLP-1(9-36) was diluted to 4.2 μM in assay buffer containing 1.5 mM IBMX and 12.5% DMSO. The 5× compound dose response was added (3 μL), followed by 0.5 μL of GLP-1(9-36) and cells were incubated for 30 min at 37° C. Direct detection of cAMP was carried out using DiscoveRx HitHunter cAMP kit according to manufacturer's instructions and luminescence was read using a SpectraMax M5 plate reader. Luminescence was converted to total cAMP using a cAMP standard curve and data was analyzed by non-linear regression to determine the EC50 and Emax.

Data set [2] in a line: Determination of absolute oral bioavailability in rats. Type of data set: in vivo. Conditions: rat, plasma; fasted female Sprague-Dawley rats; oral solution 5 mg/kg, intravenous 1 mg/kg. Here is the method: Determination of Absolute Oral Bioavailability in Rats
All pharmacokinetic studies were conducted in fasted female Sprague-Dawely rats (Simonsen Laboratories or Harlan Laboratories). Rats were housed in an ALAAC accredited facility and the research was approved by the facilities Institutional Animal Care and Use Committee (IACUC). The animals were acclimated to the laboratory for at least 48 h prior to initiation of experiments.
Compounds were formulated in 20% hydroxy beta cyclodextrin or 20% captisol and 80%-25 mM NaPO4 Buffer (pH 8) (intravenous infusion), or 5% DMSO/5% Tween20 and 90% water (oral gavage or intraperitoneal injection). The concentration of the dosing solutions was verified by HPLC-UV. For intravenous dosing, compounds were administered into the tail vein to manually restrained animals (n=3 rats/compound). The intravenous dose was 1 mg/kg. Oral dosing was by gavage using a standard stainless steel gavage needle (n=2-4 rats/compound). The oral solution dose was 5 mg/kg. For compounds 1 and 3, the oral solution dose was 30 mg/kg. For both routes of administration, blood was collected into BD Microtainer tubes with Dipotassium EDTA as the anticoagulantant eight time-points after dosing with the final sample drawn 24 h post dose Plasma was separated by centrifugation and transferred to a polypropylene 96-well plate and kept at 4° C. until analysis.
Proteins were precipitated by adding 150 μL acetonitrile to 50 μL of plasma. Plates were mixed for 1 min on a plate shaker to facilitate protein precipitation and then centrifuged at 3,000 rpm for 10 min to pellet protein. The supernatant was transferred to a clean plate and centrifuged at 3,000 rpm for 10 min to pellet any remaining solid material prior to LC/MS/MS analysis. Calibration curve standards were prepared by spiking 54 compound stock in DMSO into rat plasma from untreated animals. An eight point standard curve spanning a range of 0.14 nM to 300 nM was included with each bio-analytical run. The standards were processed identically to the rat pharmacokinetic samples.
Concentrations in the rat pharmacokinetic samples were determined using a standardized HPLC-LC/MS/MS method relative to the eight point standard curve. The system consisted of a Leap CTC Pal injector, Agilent 1200 HPLC with binary pump coupled with an Applied Biosystems 4000 QTrap. Compounds were chromatographed on a Phenomenex Luna C8(2) 20×2 mm 2 um Mercury Cartridge with Security Guard. A gradient method was used with mobile phase A consisting of 0.1% formic acid in water and mobile phase B consisting of 0.1% formic acid in acetonitrile at flow rates varying from 0.7 to 0.8 mL/min. Ions were generated in positive ionization mode using an electrospray ionization (ESI) interface. Multiple reaction monitoring (MRM) methods were developed specific to each compound. The heated nebulizer was set at 500° C. with a nebulizer current of 5.1 μA. Collision energies used to generate daughter ions ranged between 29 and 80 V. Peak area obtained from MRM of the mass transitions specific for each compound were used for quantification. The limit of quantification of the method was typically 1.2 nM. Data were collected and analyzed using Analyst software version 1.5.1. Blood concentration versus time data were analyzed using non-compartmental methods (WinNonlin Phoenix version 6.2; model 200 for oral or intraperitoneal dosing and model 202 for intravenous infusion). Absolute oral bioavailability (%) was calculated using the following expression: (Oral AUC×IV Dose)/(IV AUC×Oral Dose)×100.

T1 sequence (P43220 24-463): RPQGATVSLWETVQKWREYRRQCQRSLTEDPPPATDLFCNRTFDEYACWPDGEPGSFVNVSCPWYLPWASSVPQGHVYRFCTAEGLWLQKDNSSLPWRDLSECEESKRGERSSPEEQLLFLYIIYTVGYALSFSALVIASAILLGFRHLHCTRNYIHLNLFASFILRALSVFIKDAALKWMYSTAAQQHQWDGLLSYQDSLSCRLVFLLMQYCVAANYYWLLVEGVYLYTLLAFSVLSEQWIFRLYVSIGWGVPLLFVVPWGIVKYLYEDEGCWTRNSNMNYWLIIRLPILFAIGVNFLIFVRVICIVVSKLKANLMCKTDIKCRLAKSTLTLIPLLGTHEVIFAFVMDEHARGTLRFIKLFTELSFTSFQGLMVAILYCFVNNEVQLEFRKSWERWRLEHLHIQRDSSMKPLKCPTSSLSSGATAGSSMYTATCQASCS
T1 sequence (P01275 100-127 partner limits assumed): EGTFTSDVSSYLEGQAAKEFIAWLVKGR

Consider `COc1ccc(CC(=O)Nc2ccc(C(=O)N(CC(=O)O)Cc3ccc(-c4nc(-c5ccc(-c6ccc(C)cc6)cc5)no4)cc3)cc2)c(C(F)(F)F)c1` [Compound 362, 2-(4-(2-(4-methoxy-2-(trifluoromethyl)phenyl)acetamido)-N-(4-(3-(4′-methyl-[1,1′-biphenyl]-4-yl)-1,2,4-oxadiazol-5-yl)benzyl)benzamido)acetic acid], for which, in data set [1], the “EC20 GLP-1 (9-36) PAM Activity max cAMP” value was found to be 281 nM and the 50% effective concentration (EC50) – broadly, the midpoint of the concentration-response curve – turned out to be 300 nM. In addition, in data set [2], the bioavailability – broadly, the share of a dose that reaches the circulation, judged against a reference dose that is usually intravenous – was found to be 8%.
As for `COc1ccc(CC(=O)Nc2ccc(C(=O)N(CC(=O)O)Cc3ccc(-c4nc(-c5ccc(C)cc5)no4)cc3)cc2)c(C(F)(F)F)c1` [Compound 363, 2-(4-(2-(4-methoxy-2-(trifluoromethyl)phenyl)acetamido)-N-(4-(3-(p-tolyl)-1,2,4-oxadiazol-5-yl)benzyl)benzamido)acetic acid], in data set [1], the “EC20 GLP-1 (9-36) PAM Activity max cAMP” value came to 237 nM and the EC50 came out at 3200 nM. In addition, the bioavailability in data set [2] is 3%.
Regarding `COc1ccc(CC(=O)Nc2ccc(C(=O)N(CC(=O)O)Cc3ccc(-c4coc(-c5ccc(-c6ccc(C)cc6)cc5)n4)cc3)cc2)c(C(F)(F)F)c1` [Compound 364, 2-(4-(2-(4-methoxy-2-(trifluoromethyl)phenyl)acetamido)-N-(4-(2-(4′-methyl-[1,1′-biphenyl]-4-yl)oxazol-4-yl)benzyl)benzamido)acetic acid], in data set [1], the “EC20 GLP-1 (9-36) PAM Activity max cAMP” value was found to be 278 nM and the concentration for a half-maximal effect (EC50) stood at 400 nM. In addition, the bioavailability in data set [2] is 10%.
Turning to `COc1ccc(OC)c(CC(=O)Nc2ccc(C(=O)N(CC(=O)O)Cc3ccc(-c4noc(-c5ccc(-c6ccc(C)cc6)cc5)n4)cc3)cc2)c1` [Compound 405, 2-(4-(2-(2,5-dimethoxyphenyl)acetamido)-N-(4-(5-(4′-methyl-[1,1′-biphenyl]-4-yl)-1,2,4-oxadiazol-3-yl)benzyl)benzamido)acetic acid], in data set [1], the “EC20 GLP-1 (9-36) PAM Activity max cAMP” value is 206 nM and the EC50 amounted to 300 nM. The same compound displayed a bioavailability in data set [2] of 8%.
The like results for `COc1cccc(OC)c1CC(=O)Nc1ccc(C(=O)N(CC(=O)O)Cc2ccc(-c3noc(-c4ccc(-c5ccc(C)cc5)cc4)n3)cc2)cc1` [Compound 411, 2-(4-(2-(2,6-dimethoxyphenyl)acetamido)-N-(4-(5-(4′-methyl-[1,1′-biphenyl]-4-yl)-1,2,4-oxadiazol-3-yl)benzyl)benzamido)acetic acid] were, in that order, 258 nM, 200 nM and 10%.
In the case of `COc1ccc(F)c(CC(=O)Nc2ccc(C(=O)N(CC(=O)O)Cc3ccc(-c4noc(-c5ccc(-c6ccc(C)cc6)cc5)n4)cc3)cc2)c1F` [Compound 441, 2-(4-(2-(2,6-difluoro-3-methoxyphenyl)acetamido)-N-(4-(5-(4′-methyl-[1,1′-biphenyl]-4-yl)-1,2,4-oxadiazol-3-yl)benzyl)benzamido)acetic acid], in data set [1], the “EC20 GLP-1 (9-36) PAM Activity max cAMP” value is listed as 167 nM and the EC50 came out at 500 nM. Also, the bioavailability in data set [2] came to 5%.
Turning to `COc1ccc(OC)c(CC(=O)Nc2ccc(C(=O)N(CC(=O)O)Cc3ccc(-c4nc(-c5ccc(-c6ccc(C)cc6)cc5)no4)cc3)cc2)c1` [Compound 457, 2-(4-(2-(2,5-dimethoxyphenyl)acetamido)-N-(4-(3-(4′-methyl-[1,1′-biphenyl]-4-yl)-1,2,4-oxadiazol-5-yl)benzyl)benzamido)acetic acid], in data set [1], the “EC20 GLP-1 (9-36) PAM Activity max cAMP” value was 266 nM and the half-maximal effective concentration (EC50) amounted to 200 nM. Besides, the bioavailability in data set [2] worked out at 19.4%.
The like results for `COc1cccc(OC)c1CC(=O)Nc1ccc(C(=O)N(CC(=O)O)Cc2ccc(-c3nc(-c4ccc(-c5ccc(C)cc5)cc4)no3)cc2)cc1` [Compound 458, 2-(4-(2-(2,6-dimethoxyphenyl)acetamido)-N-(4-(3-(4′-methyl-[1,1′-biphenyl]-4-yl)-1,2,4-oxadiazol-5-yl)benzyl)benzamido)acetic acid] were, in that order, 302 nM, 200 nM and 14.8%.
Consider `COc1ccc(CC(=O)Nc2ccc(C(=O)N(CC(=O)O)Cc3ccc(-c4noc(-c5ccc(-c6ccc(C)cc6)cc5)n4)cc3)c(F)c2)c(C(F)(F)F)c1` [Compound 496, 2-(2-fluoro-4-(2-(4-methoxy-2-(trifluoromethyl)phenyl)acetamido)-N-(4-(5-(4′-methyl-[1,1′-biphenyl]-4-yl)-1,2,4-oxadiazol-3-yl)benzyl)benzamido)acetic acid], for which, in data set [1], the “EC20 GLP-1 (9-36) PAM Activity max cAMP” value came out at 310 nM and the EC50 stood at 500 nM. This compound registered a bioavailability in data set [2] of 7%.
